According to patent US20210236476A1, “METHODS OF TREATING CANCER WITH SMALL MOLECULE PD-L1 INHIBITORS” (CHEMOCENTRYX, INC., priority 2018, published 2021):

What follows are compounds tested against T1, human PD-L1 / human PD-1 interaction (Homo sapiens, UniProt Q9NZQ7) (assay: ELISA of PD-1/PD-L1 interaction).
T1 construct: purchased R&D (PD-L1); ACRO Biosystems (PD-1, biotin)
Assay type: binding
Method: The activity of Compound 1.041 was assessed with an ELISA assay assessing the direct binding of recombinant PD-1 and PD-L1 proteins (FIG. 1A), a dimerization ELISA assay assessing the direct binding/dimerization of recombinant PD-L1 proteins (FIG. 1B), a cell based assay measuring the downstream signaling following the interaction of PD-1 and PD-L1 using a Luciferase reporter assay with cell lines overexpressing PD-1 and PD-L1 (FIG. 1C), and a mixed lymphocyte reaction assay measuring the functional outcome of upregulation of IFNg secretion, using allogenic primary human immune cells (FIG. 1D). Briefly, the mixed lymophocyte reaction assay was performed as follows: Dendritic cells and CD4+T Cells from unmatched donors were cultured together for 5 days in 96 well-flat bottom plates. Test compound was added as indicated at starting concentration of 1 μM with 1:4 dilutions with DMSO. Supernatants were harvested after 5 days of incubation and detection of human IFNg was performed by ELISA. […]
96 Well plates were coated with 1 μg/mL of human PD-L1 (obtained from R&D) in
PBS overnight at 4° C. The wells were then blocked with 2% BSA in PBS (WN) with 0.05% TWEEN-20 for 1 hour at 37° C. The plates were washed 3 times with PBS/0.05% TWEEN-20 and the compounds were serial diluted (1:5) in dilution medium and added to the ELISA plates. Human PD-1 and biotin 0.3μg/mL (ACRO Biosystems) were added and incubated for 1 hour at 37° C. then washed 3 times with PBS/0.05% TWEEN-20. A second block was performed with 2% BSA in PBS (WN)/0.05% TWEEN-20 for 10 min at 37° C. and was washed 3 times with PBS/0.05% TWEEN-20. Streptavidin—HRP was added for 1 hour at 37° C. then washed 3 times with PBS/0.05% TWEEN-20. TMB substrate was added and reacted for 20 min at 37° C. A stop solution (2 N aqueous H2SO4) was added. The absorbance was read at 450 nm using a micro-plate spectrophotometer.

T1 sequence (Q9NZQ7 19-239 limits assumed): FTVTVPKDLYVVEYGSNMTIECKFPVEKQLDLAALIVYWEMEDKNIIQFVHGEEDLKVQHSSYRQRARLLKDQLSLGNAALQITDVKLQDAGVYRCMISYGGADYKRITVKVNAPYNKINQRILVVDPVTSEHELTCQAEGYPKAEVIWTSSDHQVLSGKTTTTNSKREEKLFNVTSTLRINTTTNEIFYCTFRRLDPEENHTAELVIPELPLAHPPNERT

IC50 [nM]	SMILES
< 5	Cc1c(OCCCN2CCC(O)CC2)cccc1-c1cccc2c1CCC2Oc1cc(OCc2cc(C#N)cc(C#N)c2)c(CN[C@@H]2CCCC[C@@H]2O)cc1Cl (some centres unmarked)
< 5	Cc1c(OCCCN2CCC(O)CC2)cccc1-c1cccc2c1CC[C@@H]2Oc1cc(OCc2cncc(C#N)c2)c(CN[C@H](C(=O)O)[C@@H](C)O)cc1Cl
< 5	C[C@@H](O)[C@H](NCc1cc(Cl)c(O[C@H]2CCc3c(-c4cccc(OCCCN5CCC(O)CC5)c4F)cccc32)cc1OCc1cncc(C#N)c1)C(=O)O
< 5	C[C@@](CO)(NCc1cc(Cl)c(O[C@H]2CCc3c(-c4cccc(OCCCN5CCC(O)CC5)c4F)cccc32)cc1OCc1cncc(C#N)c1)C(=O)O
< 5	CCOc1cc(O[C@H]2CCc3c(-c4cccc(OCCCN5CCC(O)CC5)c4C)cccc32)c(Cl)cc1CN[C@@H](CO)C(=O)O
< 5	CCOc1cc(O[C@H]2CCc3c(-c4cccc(OCCCN5CCC(O)CC5)c4C)cccc32)c(Cl)cc1CN[C@H](C(=O)O)[C@@H](C)O
< 5	CCOc1cc(O[C@H]2CCc3c(-c4cccc(OCCCN5CC[C@@H](O)C5)c4C)cccc32)c(Cl)cc1CN[C@@H](CO)C(=O)O
< 5	Cc1c(OCCCN2CCC(O)CC2)cccc1-c1cccc2c1CC[C@@H]2Oc1cc(OCc2cncc(C#N)c2)c(CN[C@H](C(N)=O)[C@@H](C)O)cc1Cl
< 5	Cc1c(OCCCN2CCC(O)CC2)cccc1-c1cccc2c1CC[C@@H]2Oc1cc(OCc2cncc(C#N)c2)c(CN[C@@H](CO)C(N)=O)cc1Cl
< 5	Cc1c(OCCCN2CCC(O)CC2)cccc1-c1cccc2c1CC[C@@H]2Oc1cc(OCc2cncc(C#N)c2)c(CN[C@H](C(=O)NS(C)(=O)=O)[C@@H](C)O)cc1Cl
< 5	Cc1c(OCCCN2CCC(O)CC2)cccc1-c1cccc2c1CC[C@@H]2Oc1cc(OCc2cncc(C#N)c2)c(CN2CCC(O)CC2)cc1Cl
< 5	Cc1c(OCCCN2CCC(O)CC2)cccc1-c1cccc2c1CC[C@@H]2Oc1cc(OCc2cncc(C#N)c2)c(CN2CC[C@H](O)C2)cc1Cl
< 5	CCOc1cc(O[C@H]2CCc3c(-c4cccc(OCCCN5CC[C@@H](O)C5)c4C)cccc32)c(Cl)cc1CNC(CO)CO
< 5	CCOc1cc(O[C@H]2CCc3c(-c4cccc(OCCCN5CC[C@@H](O)C5)c4C)cccc32)c(Cl)cc1CNC(C)(CO)CO
< 5	Cc1c(OCCCN2CCC(O)CC2)cccc1-c1cccc2c1CC[C@@H]2Oc1cc(OCc2cncc(C#N)c2)c(CN2CC[C@@H](O)C2)cc1Cl
< 5	Cc1c(OCCCN2CCC(O)CC2)cccc1-c1cccc2c1CC[C@@H]2Oc1cc(OCc2cncc(C#N)c2)c(CNCC2CCC(=O)N2)cc1Cl (some centres unmarked)
< 5	Cc1c(OCCCN2CCC(O)CC2)cccc1-c1cccc2c1CC[C@@H]2Oc1cc(OCc2cncc(C#N)c2)c(CNCC(C)(C)O)cc1Cl
< 5	Cc1c(OCCCN2CCC(O)CC2)cccc1-c1cccc2c1CC[C@@H]2Oc1cc(OCc2cncc(C#N)c2)c(CN2CC(C(=O)O)C2)cc1Cl
< 5	Cc1c(OCCCN2CCC(O)CC2)cccc1-c1cccc2c1CC[C@@H]2Oc1cc(OCc2cncc(C#N)c2)c(CN[C@@H]2CCCC[C@H]2O)cc1Cl
< 5	Cc1c(OCCCN2CCC(O)CC2)cccc1-c1cccc2c1CC[C@@H]2Oc1cc(OCc2cncc(C#N)c2)c(CN2CC(O)C2)cc1Cl
< 5	Cc1c(OCCCN2CCC(O)CC2)cccc1-c1cccc2c1CC[C@@H]2Oc1cc(OCc2cncc(C#N)c2)c(CNCc2cn(C)cn2)cc1Cl
< 5	Cc1c(OCCCN2CCC(O)CC2)cccc1-c1cccc2c1CC[C@@H]2Oc1cc(OCc2cncc(C#N)c2)c(CN[C@@H]2CCC[C@H]2O)cc1Cl
< 5	Cc1c(OCCCN2CCC(O)CC2)cccc1-c1cccc2c1CC[C@@H]2Oc1cc(OCc2cncc(C#N)c2)c(CNC2(C(=O)O)CCC2)cc1Cl
< 5	Cc1c(OCCCN2CCC(O)CC2)cccc1-c1cccc2c1CC[C@@H]2Oc1cc(OCc2cncc(C#N)c2)c(CN[C@@H](CNC(=N)N)C(=O)O)cc1Cl
< 5	Cc1c(OCCCN2CCC(O)CC2)cccc1-c1cccc2c1CC[C@@H]2Oc1cc(OCc2cncc(C#N)c2)c(CN2CCC(C)(O)CC2)cc1Cl
< 5	COC(=O)C1(O)CCN(CCCOc2cccc(-c3cccc4c3CC[C@@H]4Oc3cc(OCc4cncc(C#N)c4)c(CN[C@H](C(=O)O)[C@@H](C)O)cc3Cl)c2C)C1 (some centres unmarked)
< 5	Cc1c(OCCCN2CC(C)(O)C2)cccc1-c1cccc2c1CC[C@@H]2Oc1cc(OCc2cncc(C#N)c2)c(CNCC2CCC(=O)N2)cc1Cl (some centres unmarked)

IC50 [nM]	SMILES
< 5	Cc1c(OCCCN2C3CCC2CC(O)C3)cccc1-c1cccc2c1CC[C@@H]2Oc1cc(OCc2cncc(C#N)c2)c(CNCC2CCC(=O)N2)cc1Cl (some centres unmarked)
< 5	Cc1c(OCCCN2CCC(F)CC2)cccc1-c1cccc2c1CC[C@@H]2Oc1cc(OCc2cncc(C#N)c2)c(CNCC2CCC(=O)N2)cc1Cl (some centres unmarked)
< 5	Cc1c(OCCCN2CC(O)C2)cccc1-c1cccc2c1CC[C@@H]2Oc1cc(OCc2cncc(C#N)c2)c(CNCC2CCC(=O)N2)cc1Cl (some centres unmarked)
< 5	N#Cc1cncc(COc2cc(O[C@H]3CCc4c(-c5cccc(OCCCN6CCC(O)CC6)c5Cl)cccc43)c(Cl)cc2CNCC2CCC(=O)N2)c1 (some centres unmarked)
< 5	C[C@@H](O)[C@H](NCc1cc(Cl)c(O[C@H]2CCc3c(-c4cccc(OCCCN5CCC(O)CC5)c4Cl)cccc32)cc1OCc1cncc(C#N)c1)C(N)=O
< 5	Cc1c(OCCCN2CCC(O)CC2)cccc1-c1cccc2c1C[C@@H](F)[C@@H]2Oc1cc(OCc2cncc(C#N)c2)c(CN[C@@H](CO)C(=O)O)cc1Cl
< 5	Cc1c(OCCCN2CCC(O)CC2)cccc1-c1cccc2c1C[C@H](F)[C@@H]2Oc1cc(OCc2cncc(C#N)c2)c(CN[C@H](C(=O)O)[C@@H](C)O)cc1Cl
< 5	Cc1c(OCCCN2CCC(O)CC2)cccc1-c1cccc2c1C[C@H](F)[C@@H]2Oc1cc(OCc2cncc(C#N)c2)c(CN[C@@](C)(CO)C(=O)O)cc1Cl
< 5	Cc1c(OCCCN2CCC(O)CC2)cccc1-c1cccc2c1C[C@H](F)[C@@H]2Oc1cc(OCc2cncc(C#N)c2)c(CN[C@@H]2CCCC[C@@H]2O)cc1Cl
< 5	Cc1c(OCCCN2CC[C@H](F)C2)cccc1-c1cccc2c1CC[C@@H]2Oc1cc(OCc2cncc(C#N)c2)c(CN[C@@H]2CCCC[C@@H]2O)cc1Cl
< 5	Cc1c(OCCCN2CC[C@@H](F)C2)cccc1-c1cccc2c1CC[C@@H]2Oc1cc(OCc2cncc(C#N)c2)c(CN[C@@H]2CCCC[C@@H]2O)cc1Cl
< 5	CC(CO)(CO)NCc1cc(Cl)c(O[C@H]2CCc3c(-c4cccc(OCCCN5CCNC(=O)C5)c4Cl)cccc32)cc1OCc1cncc(C#N)c1
< 5	N#Cc1cncc(COc2cc(O[C@H]3CCc4c(-c5cccc(OCCCN6CCNC(=O)C6)c5Cl)cccc43)c(Cl)cc2CNC2(C(=O)O)CCC2)c1
< 5	N#Cc1cncc(COc2cc(O[C@H]3CCc4c(-c5cccc(OCCCN6CC7(CC(F)C7)C6)c5Cl)cccc43)c(Cl)cc2CN[C@@H]2CCCC[C@@H]2O)c1
< 5	N#Cc1cncc(COc2cc(O[C@H]3CCc4c(-c5cccc(OCCCN6CC7(C6)CC(F)(F)C7)c5Cl)cccc43)c(Cl)cc2CN[C@@H]2CCCC[C@@H]2O)c1
< 5	N#Cc1cncc(COc2cc(O[C@H]3CCc4c(-c5cccc(OCCCN6CC(F)C6)c5Cl)cccc43)c(Cl)cc2CN[C@@H]2CCCC[C@@H]2O)c1
< 5	Cc1c(OCCCNCC(C)(C)O)cccc1-c1cccc2c1CC[C@@H]2Oc1cc(OCc2cncc(C#N)c2)c(CNCC2CCC(=O)N2)cc1Cl (some centres unmarked)
< 5	CC(C)(O)[C@H](NCc1cc(Cl)c(O[C@H]2CCc3c(-c4cccc(OCCCN5CCC(F)CC5)c4Cl)cccc32)cc1OCc1cncc(C#N)c1)C(=O)O
< 5	CC(C)OC(=O)[C@](C)(CO)NCc1cc(Cl)c(O[C@H]2CCc3c(-c4cccc(OCCCN5CC(O)C5)c4Cl)cccc32)cc1OCc1cncc(C#N)c1
< 5	Cc1c(OCCCN2CC(F)C2)cccc1-c1cccc2c1CC[C@@H]2Oc1cc(OCc2cncc(C#N)c2)c(CNCC2CCC(=O)N2)cc1Cl (some centres unmarked)
< 5	N#Cc1cc(C#N)cc(COc2cc(O[C@@H]3c4cccc(-c5cccc(OCCCN6CC(O)C6)c5Cl)c4C[C@@H]3F)c(Cl)cc2CNC[C@H]2CCC(=O)N2)c1
< 5	C[C@@](CO)(NCc1cc(Cl)c(O[C@@H]2c3cccc(-c4cccc(OCCCN5CC(O)C5)c4Cl)c3C[C@@H]2F)cc1OCc1cc(C#N)cc(C#N)c1)C(=O)O
< 5	N#Cc1cncc(COc2cc(O[C@H]3CCc4c(-c5cccc(OCCCN6CC[C@@H](F)C6)c5Cl)cccc43)c(Cl)cc2CN[C@@H]2CCCC[C@@H]2O)c1
< 5	N#Cc1cncc(COc2cc(O[C@H]3CCc4c(-c5cccc(OCCCN6CCC(F)CC6)c5Cl)cccc43)c(Cl)cc2CN[C@@H]2CCCC[C@@H]2O)c1
< 5	N#Cc1cncc(COc2cc(O[C@H]3CCc4c(-c5cccc(OCCCN6CC[C@H](F)C6)c5Cl)cccc43)c(Cl)cc2CN[C@@H]2CCCC[C@@H]2O)c1
< 5	CC1(O)CN(CCCOc2cccc(-c3cccc4c3CC[C@@H]4Oc3cc(OCc4cncc(C#N)c4)c(CN[C@@](C)(CO)C(=O)O)cc3Cl)c2Cl)C1
